Assay: UV absorption spectroscopic data (λmax, ε, E 1%/1 cm) of the merocyanine UV absorbers
Format: physicochemical
Parameters: λmax: unit not given beside the values
Conditions: for λmax [nm]: Table MC1; for E (1%, 1 cm) / ε / λmax / λmax (sh): Table MC3; for ε: at λmax; for λmax (sh): shoulder

Compound: CCOC(=O)/C(=C1\C=C(NCCNC2=C/C(=C(\C(=O)OCC)S(=O)(=O)c3ccccc3)CCC2)CCC1)S(=O)(=O)c1ccccc1 [MC05]
- λmax [nm] (in MeOH): 362 (MeOH) nm

Compound: CCCCC(CC)(CCCNC1=C/C(=C(/C(=O)OCC)C(=O)c2ccc(OC)cc2)CCC1)CNC1=C/C(=C(/C(=O)OCC)C(=O)c2ccc(OCC)cc2)CCC1 (centres unmarked) [MC28]
- λmax [nm] (in MeOH): 373 (MeOH) nm

Compound: COc1cc(OC(=O)/C(C(C)=O)=C2/C=C(NCC(C)NC3=C/C(=C(\C(C)=O)C(=O)Oc4cc(OC)c(OC)c(OC)c4)CC(C)(C)C3)CC(C)(C)C2)cc(OC)c1OC (centres unmarked) [MC22]
- λmax [nm] (in MeOH): 395 (MeOH) nm

Compound: CC(=O)/C(C(=O)OCC(C)C)=C1/C=C(NCC(C)(CNC2=C/C(=C(\C(C)=O)C(=O)OCC(C)C)CC(C)(C)C2)CNC2=C/C(=C(\C(C)=O)C(=O)OCC(C)C)CC(C)(C)C2)CC(C)(C)C1 [MC27]
- λmax [nm] (in MeOH): 385 (MeOH) nm

Compound: CCOC(=O)C(C(=O)OCC)=C1C=C(NC2CCCCC2NC2=CC(=C(C(=O)OCC)C(=O)OCC)CC(C)(C)C2)CC(C)(C)C1 (centres unmarked) [MC10]
- λmax [nm] (in MeOH): 362 (MeOH) nm

Compound: CCCCC(CC)COC(=O)C(C#N)=CC=CN(CC)CC (centres unmarked) [MC39]
- λmax [nm] (in EtOH): 380 (EtOH) nm
- E (1%, 1 cm): 2037
- ε: 62400 L/mol/cm
- λmax (solvent not given): 380

Compound: CCCCC(CC)COC(=O)/C(=C1\C=C(NCCCNC2=C/C(=C(\C(=O)OCC(CC)CCCC)S(=O)(=O)c3ccccc3)CCC2)CCC1)S(=O)(=O)c1ccccc1 (centres unmarked) [MC17]
- λmax [nm] (in MeOH): 385 (MeOH) nm

Compound: CCCCCCN(C=CC=C(C(C)=O)S(=O)(=O)c1ccc(C)cc1)CC [MC36]
- λmax [nm] (in MeOH): 385 (MeOH) nm

Compound: CC1(C)CC(NCCCOCCOCCNC2=CC(=C3C(=O)OC(C)(C)OC3=O)CC(C)(C)C2)=CC(=C2C(=O)OC(C)(C)OC2=O)C1 [MC13]
- λmax [nm] (in MeOH): 380 (MeOH) nm

Compound: CC1(C)CC(NCCNC2=CC(=C(C#N)C#N)CC(C)(C)C2)=CC(=C(C#N)C#N)C1 [MC04]
- λmax [nm] (in MeOH): 361 (MeOH) nm

Compound: CCCCCCCCOC(=O)/C(=C\C=C\N(CC)CC)S(=O)(=O)c1ccccc1 [MC172]
- E (1%, 1 cm): 1724
- ε: 72700 L/mol/cm
- λmax (solvent not given): 371

Compound: CCCCC(CC)COC(=O)/C(C#N)=C1\C=C(N2CCOCC2)CC(C)(C)C1 (centres unmarked) [MC184]
- λmax (acetonitrile): 399

Compound: COC(=O)C(=C/C=C/N(C(C)C)C(C)C)C(=O)OC [MC180]
- E (1%, 1 cm): 2111
- ε: 56800 L/mol/cm
- λmax (solvent not given): 378

Compound: CN(CCCNC1=CC(=C2C(=O)CC(C)(C)CC2=O)CCC1)CCCNC1=CC(=C2C(=O)CC(C)(C)CC2=O)CCC1 [MC12]
- λmax [nm] (in MeOH): 392 (MeOH) nm

Compound: Cc1ccc(S(=O)(=O)/C(C#N)=C\C=C2\OCC(C)(C)N2C)cc1 [MC06]
- λmax [nm] (in MeOH): 374 (MeOH) nm

Compound: CC1(C)CC(NC2CCCCC2NC2=CC(=C(C#N)C#N)CC(C)(C)C2)=CC(=C(C#N)C#N)C1 (centres unmarked) [MC34]
- λmax [nm] (in MeOH): 383 (MeOH) nm

Compound: CCOC(=O)/C(C#N)=C1\C=C(NCCN(CCNC2=C/C(=C(/C#N)C(=O)OCC)CC(C)(C)C2)CCNC2=C/C(=C(\C#N)C(=O)OCC)CC(C)(C)C2)CC(C)(C)C1 [MC11]
- λmax [nm] (in MeOH): 375 (MeOH) nm

Compound: COC(=O)C(C(=O)OC)=C1C=C(NC2CCCCC2NC2=CC(=C(C(=O)OC)C(=O)OC)CCC2)CCC1 (centres unmarked) [MC35]
- λmax [nm] (in MeOH): 374 (MeOH) nm

Compound: CCCCC(CC)COC(=O)/C(C#N)=C\C=C\N(CC)CCCN(/C=C/C=C(/C#N)C(=O)OCC(CC)CCCC)CC (centres unmarked) [MC173]
- E (1%, 1 cm): 1545
- ε: 92000 L/mol/cm
- λmax (solvent not given): 390

Compound: CCOC(=O)C(C(=O)OCC)=C1C=C(NCc2ccc(CNC3=CC(=C(C(=O)OCC)C(=O)OCC)CCC3)cc2)CCC1 [MC14]
- λmax [nm] (in MeOH): 392 (MeOH) nm

Compound: CCCCC(CC)COC(=O)/C(C#N)=C\C=C\N(CC)CCCCN(/C=C/C=C(/C#N)C(=O)OCC(CC)CCCC)CC (centres unmarked) [MC183]
- E (1%, 1 cm): 2570
- ε: 111000 L/mol/cm
- λmax (sh) (solvent not given): 370
- λmax (solvent not given): 386

Compound: CCCCC(CC)COC(=O)/C(C#N)=C1/C=C(NCCNC2=C/C(=C(\C#N)C(=O)OCC(CC)CCCC)CC(C)(C)C2)CC(C)(C)C1 (centres unmarked) [MC01]
- λmax [nm] (in MeOH): 362 (MeOH) nm

Compound: CCOC(=O)C(C(=O)OCC)=C1C=C(NCC2(C)CC(NC3=CC(=C(C(=O)OCC)C(=O)OCC)CC(C)(C)C3)CC(C)(C)C2)CC(C)(C)C1 (centres unmarked) [MC25]
- λmax [nm] (in MeOH): 395 (MeOH) nm

Compound: CCCCCCNC(=O)/C(=C1\C=C(NCCCNC2=C/C(=C(\C(=O)NCCCCCC)S(=O)(=O)c3ccccc3)CCC2)CCC1)S(=O)(=O)c1ccccc1 [MC16]
- λmax [nm] (in MeOH): 390 (MeOH) nm

Compound: CCOC(=O)C(=C/C=C/N1CCOCC1)C(=O)OCC [MC181]
- E (1%, 1 cm): 1684
- ε: 47700 L/mol/cm
- λmax (solvent not given): 371

Compound: CCCCC(CC)COC(=O)/C(C#N)=C1\C=C(NC(C)CC)CC(C)(C)C1 (centres unmarked) [MC185]
- λmax (acetonitrile): 388
- λmax (sh) (acetonitrile): 368

Compound: COCCOC(=O)/C(C(C)=O)=C1/C=C(NCCC(C)(C)CC(C)CNC2=C/C(=C(\C(C)=O)C(=O)OCCOC)CC(C)C2)CC(C)C1 (centres unmarked) [MC29]
- λmax [nm] (in MeOH): 383 (MeOH) nm

Compound: CCOC(=O)/C(=C1\C=C(NC(C)CC)CCC1)C(OC)(C(=O)OCC)/C(C(=O)OCC)=C1/C=C(NC(C)CC)CCC1 (centres unmarked) [MC33]
- λmax [nm] (in MeOH): 375 (MeOH) nm

Compound: COC(=O)C(=C/C=C/N(C)C)C(=O)OC [MC177]
- E (1%, 1 cm): 2488
- ε: 53000 L/mol/cm
- λmax (solvent not given): 373

Compound: COC(=O)C(=C/C=C/N1CCOCC1)C(=O)OC [MC178]
- E (1%, 1 cm): 1476
- ε: 37700 L/mol/cm
- λmax (solvent not given): 373

Compound: CN(C)/C=C/C=C1C(=O)OC(C)(C)OC1=O [MC175]
- E (1%, 1 cm): 3022
- ε: 68000 L/mol/cm
- λmax (solvent not given): 383

Compound: CCCCC(CC)COC(=O)/C(C#N)=C/C=C/N1CCN(/C=C/C=C(\C#N)C(=O)OCC(CC)CCCC)CC1 (centres unmarked) [MC174]
- E (1%, 1 cm): 2650
- ε: 146 379
- λmax (solvent not given): 398

Compound: CCOC(=O)/C(C#N)=C1\C=C(NCCCCCCNC2=C/C(=C(/C#N)C(=O)OCC)CCC2)CCC1 [MC18]
- λmax [nm] (in MeOH): 384 (MeOH) nm

Compound: CCOC(=O)C(C(=O)OCC)=C1C=C(N2CCOCC2)CC(C)(C)C1 [MC186]
- λmax (acetonitrile): 376

Compound: CCCCC(CC)CNC(=O)/C(C#N)=C1/C=C(N2CCN(C3=C/C(=C(\C#N)C(=O)NCC(CC)CCCC)CC(C)(C)C3)C(C)C2)CC(C)(C)C1 (centres unmarked) [MC26]
- λmax [nm] (in MeOH): 374 (MeOH) nm

Compound: CCOC(=O)/C(C#N)=C1\C=C(NC2CC(C)(C)CC(C)(CNC3=C/C(=C(\C#N)C(=O)OCC)CC(C)(C)C3)C2)CC(C)(C)C1 (centres unmarked) [MC24]
- λmax [nm] (in MeOH): 388 (MeOH) nm

Compound: CCOC(=O)/C(C#N)=C1\C=C(NC2CCCCC2NC2=C/C(=C(/C#N)C(=O)OCC)CC(C)(C)C2)CC(C)(C)C1 (centres unmarked) [MC09]
- λmax [nm] (in MeOH): 370 (MeOH) nm

Compound: COC(=O)C(=C/C=C/N1CCCCC1)C(=O)OC [MC179]
- E (1%, 1 cm): 1953
- ε: 49500 L/mol/cm
- λmax (solvent not given): 377

Compound: CCOC(=O)C(C(=O)OCC)=C1C=C(NCCNC2=CC(=C(C(=O)OCC)C(=O)OCC)CC(C)(C)C2)CC(C)(C)C1 [MC03]
- λmax [nm] (in MeOH): 372 (MeOH) nm

Compound: CCOC(=O)C(C(=O)OCC)=C1C=C(NCCCCCCNC2=CC(=C(C(=O)OCC)C(=O)OCC)CCC2)CCC1 [MC19]
- λmax [nm] (in MeOH): 373 (MeOH) nm

Compound: CC(=O)/C(C(=O)NCCNC(=O)/C(C(C)=O)=C1/C=C(N2CCCCC2)CCC1)=C1\C=C(N2CCCCC2)CCC1 [MC30]
- λmax [nm] (in MeOH): 385 (MeOH) nm

Compound: CC(=O)/C(C(=O)Nc1ccc(NC(=O)/C(C(C)=O)=C2/C=C(N3CCCC3)CC(C)(C)C2)cc1)=C1\C=C(N2CCCC2)CC(C)(C)C1 [MC31]
- λmax [nm] (in MeOH): 394 (MeOH) nm

Compound: CCOC(=O)C(C(=O)OCC)=C1C=C(N2CCN(C3=CC(=C(C(=O)OCC)C(=O)OCC)CC(C)(C)C3)CC2)CC(C)(C)C1 [MC08]
- λmax [nm] (in MeOH): 373 (MeOH) nm

Compound: CCCCN(/C=C/C=C(C(=O)OCC)C(=O)OCC)CCCC [MC182]
- E (1%, 1 cm): 1423
- ε: 60600 L/mol/cm
- λmax (solvent not given): 377

From patent US7407648B2, “Merocyanine derivatives for cosmetic use” (Ciba Specialty Chemicals Corp., priority 2002, dated 2008)
